These results are taken from patent publication US6965035B1, “Compacted forms of halogenated hydantoins” (priority 2002, dated 2005).

Each structure is given as a SMILES string.

Common to all, as to assay type: physicochemical
The nature of data set [1]: Dissolution of granules or tablets in swimming pool skimmer basket under recirculated pool water. The source says:
A swimming pool skimmer basket was divided into two halves by means of a simple plastic partition placed across the basket diameter. One half of the basket had 50 grams of pure (wax-free) DBDMH granules placed in it. In the other half of the skimmer basket was placed 50 grams of DBDMH/1 wt % MPP-611 wax granules. […] The basket, containing both sets of granules, was introduced to the skimmer of an above-ground pool. Swimming pool water was pumped past the granules in the skimmer basket by means of the pool recirculation pump. The flow rate was around 30 gallons per minute (gpm) and the water temperature was 60° F. (15.5° C.). After 6 hours, the pump was turned off and the skimmer basket containing the partially-dissolved granules was removed. The granules were removed from their respective halves of the skimmer basket and placed in crystallizing dishes to dry overnight. Each set of granules was reweighed. The weight of the undissolved portion was subtracted from the initial weight, and the amount dissolved (the difference) was expressed in terms of % dissolved (the relative dissolution rate). Table 5 lists the relative amount dissolved for both sets of granules. The procedures described in Example 4 were repeated using pure (wax-free) DBDMH granules and DBDMH/2 wt % MPP-611 wax granules. The water temperature was 66° F. (19° C.). Table 5 lists the relative amount dissolved for both sets of granules. The skimmer basket setup described in Example 4 was used. In one half of the basket, tablets of DBDMH/3 wt % MPP-611 wax (5×24 g; total weight, 120 g; each tablet is 1 inch in diameter) were placed an equal distance apart from each other. In the other half of the basket, tablets of pure (wax-free) 1,3-bromochloro-5,5-dimethylhydantoin (BCDMH; 5×20 g; total weight, 100 g) were similarly arranged. Both sets of tablets were one inch in diameter, so the effective surface area exposed was approximately the same for each set of tablets. The skimmer basket containing the tablets was placed into the skimmer of an above-ground swimming pool. Pool water was pumped past the tablets in the skimmer basket by means of the pool recirculation pump. The flow rate was around 30 gpm, the water temperature was 82.1° F. (27.8° C.), and water was recirculated for 16 hours. The tablets were dried and re-weighed. The weight of the undissolved portion was subtracted from the initial weight, and the amount dissolved (the difference) was expressed in terms of % dissolved (the relative dissolution rate). The amount of product dissolved was 75.5 g for the BCDMH tablets and 13.4 g for the DBDMH/3 wt % MPP-611 wax tablets. The BCDMH tablets dissolved at a rate 5.6 times faster (based on weight dissolved) than the DBDMH/3 wt % MPP-611 wax tablets. Based on the respective solubility of wax-free DBDMH and BCDMH powders, a relative dissolution factor of about 2 would have been expected (with the BCDMH dissolving faster).

Data set [2] in a line: Peak load tolerance test of granules (Sintech 1/S compression apparatus). The settings on record: 3.5–5 mesh cut of granules; average of ten runs; standard deviation in parentheses. The method, then: To minimize size effects, a 3.5–5 mesh cut of the granulated material was used in this experiment. Peak load tests were performed on DBDMH granules without wax, with 1 wt % wax, and with 2 wt % wax. The wax in both instances was micronized polyethylene wax (MPP-611). Granules of approximately the same size were selected by visual inspection; measurements of the thickness of the granules were not made because of the very irregular shapes of the granules. Peak load tolerance tests were performed utilizing a Sintech® 1/S compression apparatus (MTS Systems Corporation, Edenprairie, Minn.) equipped with Testworks software. The apparatus included a horizontal circular-shaped load cell interfaced with a computer, a digital micrometer also interfaced with the computer, and a vertical screw-driven piston disposed above the load cell and adapted to apply a downward force perpendicular to the load cell. Each granule was placed on its edge on the load cell with the piston in contact with at least a part of the upper edge of the granule. The piston often could not contact the entire upper edge of the granule due the irregular morphology of the granule. […] At the same time, the load cell continuously measured the downward force being applied to the granule, and the input of such measurements was transmitted to the computer. […]

Data set [3] is described as follows: Specific surface area of granules by nitrogen adsorption BET technique. The settings on record: 3.5–5 mesh granules, material from recycle compaction (Runs 1–3). On the procedure: To minimize size effects, a 3.5–5 mesh cut of the granulated material was used in this experiment. The material used in Runs 1–3 were from recycle compaction, and the material used in Run 4 was from first-run compaction. The surface area of the granules was determined by the well-known nitrogen adsorption BET technique. The BET technique consists of (1) removing adsorbed gases from the sample with heat and vacuum, (2) adsorbing a mono-layer of nitrogen on the surface at liquid nitrogen temperature, (3) measuring the amount of adsorbed nitrogen, and (4) calculating the total surface area of the sample from an assumed cross-sectional area of nitrogen molecules. The total surface area was divided by the sample weight to yield the specific surface area. Specific surface area is defined as the exposed surface area of 1 gram of the sample tested. A Coulter Model 3100 instrument was used.

In data set [1] (1 inch tablets, about 30 gpm, water 82.1° F. (27.8° C.), 16 hours (text Example 6)), `CC1(C)C(=O)N(Cl)C(=O)N1Br` [BCDMH tablets (no wax), 1,3-bromochloro-5,5-dimethylhydantoin] showed an Amount dissolved of 75.5%. Besides, the “Amount of product dissolved” value in data set [1] (tablets, 5×20 g BCDMH or 5×24 g DBDMH/wax, about 30 gpm, 82.1° F., 16 hours) is on record as 75.5 g. In addition, in data set [1] (tablets, 82.1° F., 16 hours), the “Dissolution rate relative to DBDMH/3 wt % MPP-611 wax tablets (based on weight dissolved)” value came to 5.6 times faster.

On to `CC1(C)C(=O)N(Br)C(=O)N1Br` [DBDMH, wax-free, 1,3-dibromo-5,5-dimethylhydantoin], for which the Average peak load in data set [2] is 11.7 (3.4) lb. The Amount dissolved in data set [1] (50 g granules >8 U.S. mesh, about 30 gpm, water 60° F. (15.5° C.), 6 hours (text Example 4)) came out at 44%; in data set [1] (50 g granules, about 30 gpm, water 66° F. (19° C.), 6 hours (text Example 5)), 60%. For the same molecule, in data set [3], the “Surface Area” value is given as 5.1 m^2/g.
